ChEMBL document CHEMBL5620383, “Advances in CD73 inhibitors for immunotherapy: Antibodies, synthetic small molecule compounds, and natural compounds” (Eur J Med Chem, 2023)
pEC50, pIC50, pKi: −log10 of the molar value. One block for each compound: values may come before it.

Columns and labels:
5'-nucleotidase [1] = target: T1, 5'-nucleotidase (Homo sapiens, UniProt P21589); experiment: Binding affinity to human recombinant CD73 expressed in Sf9 cells assessed as inhibition constant by malachite green based spectrophotometer assay
4T1 = experiment: Inhibition of cell migration in mouse 4T1 cells at 10 uM incubated for 48 hrs by Transwell assay; format: functional; parameters: scale not given: the % may be the effect or the level left
MDA-MB-231 [2] = experiment: Inhibition of cell migration in human MDA-MB-231 cells at 10 uM incubated for 48 hrs by Transwell assay; format: functional; parameters: scale not given: the % may be the effect or the level left
Homo sapiens = species: Homo sapiens; experiment: Inhibition of adenosine transporter (unknown origin) at 20 uM relative to control
5'-nucleotidase [3] = target: T1, 5'-nucleotidase; experiment: Inhibition of CD73 (unknown origin)
MDA-MB-231 [4] = experiment: Cytotoxicity against human MDA-MB-231 cells assessed as reduction in cell growth at 20 uM incubated for 48 hrs by CCK-8 assay relative to control; format: functional; parameters: scale not given: the % may be the effect or the level left
5'-nucleotidase [5] = target: T1, 5'-nucleotidase; experiment: Binding affinity to human recombinant CD73 assessed as inhibition constant
5'-nucleotidase [6] = target: T1, 5'-nucleotidase; experiment: Inhibition of human CD73 expressed in A-375 cells incubated for 15 mins by malachite green based spectrophotometer assay; format: cell-based
[7] = Reversal of adenosine induced reduction in IFNgamma production in human PBMC cells; format: functional, cell-based
5'-nucleotidase [8] = target: T1, 5'-nucleotidase; experiment: Inhibition of C-terminal 6His-tagged human recombinant CD73 expressed in CHO cells incubated for 1 hr by malachite green based spectrophotometer assay; format: cell-based
5'-nucleotidase [9] = target: T1, 5'-nucleotidase; experiment: Inhibition of human recombinant CD73 (27 to 549 residues) expressed in Sf9 cells
5'-nucleotidase [10] = target: T1, 5'-nucleotidase; experiment: Binding affinity to CD73 (unknown origin) assessed as inhibition constant
5'-nucleotidase [11] = target: T1, 5'-nucleotidase; experiment: Inhibition of CD73 (unknown origin) at 20 uM relative to control

T1 sequence (P21589 whole entry): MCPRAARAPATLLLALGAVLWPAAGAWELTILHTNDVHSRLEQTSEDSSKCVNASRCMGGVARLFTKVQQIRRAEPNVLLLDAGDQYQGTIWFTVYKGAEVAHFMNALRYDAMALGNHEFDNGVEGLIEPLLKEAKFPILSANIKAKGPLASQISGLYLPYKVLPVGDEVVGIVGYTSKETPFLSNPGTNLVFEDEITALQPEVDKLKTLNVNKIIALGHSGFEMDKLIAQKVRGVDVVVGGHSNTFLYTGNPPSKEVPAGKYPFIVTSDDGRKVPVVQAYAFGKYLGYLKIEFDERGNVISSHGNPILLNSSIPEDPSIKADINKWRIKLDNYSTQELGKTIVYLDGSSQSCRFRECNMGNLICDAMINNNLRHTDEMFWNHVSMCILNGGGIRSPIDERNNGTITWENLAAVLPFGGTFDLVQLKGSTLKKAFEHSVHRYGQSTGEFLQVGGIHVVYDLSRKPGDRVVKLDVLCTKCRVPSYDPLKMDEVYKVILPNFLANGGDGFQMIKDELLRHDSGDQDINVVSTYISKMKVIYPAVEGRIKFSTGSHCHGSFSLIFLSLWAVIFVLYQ

pKi (5'-nucleotidase [1]): 4.90
SMILES: Nc1ncnc2c1ncn2COCCOP(=O)(O)CP(=O)(O)O

inhibition (Homo sapiens): 85.7%
SMILES: C=C[C@]1(C)C[C@@H](OC(=O)CSCCN(CC)CC)[C@]2(C)[C@H](C)CC[C@]3(CCC(=O)[C@H]32)[C@@H](C)[C@@H]1O [TIAMULIN]
Activity (4T1): 67.01%
Activity (MDA-MB-231 [2]): 76.2%

pKi (5'-nucleotidase [1]): 8.00
SMILES: Cn1c(=O)n([C@@H]2O[C@H](COP(=O)(O)OP(=O)(O)O)[C@@H](O)[C@H]2O)cc/c1=N/Oc1ccccc1

pIC50 (5'-nucleotidase [3]): 6.13
SMILES: C=C(C)[C@@H]1CC[C@]2(C(=O)O)CC[C@]3(C)[C@H](CC[C@@H]4[C@@]5(C)CC[C@H](OC(=O)c6ccc(F)c(F)c6)C(C)(C)[C@@H]5CC[C@]43C)[C@@H]12
Activity (MDA-MB-231 [4]): 87.59%

pKi (5'-nucleotidase [5]): 9.50
SMILES: CN(Cc1ccccc1F)c1nc(Cl)nc2c1ncn2[C@@H]1O[C@H](COP(=O)(O)OP(=O)(O)O)[C@@H](O)[C@H]1O

pIC50 (5'-nucleotidase [6]): 8.42
pKi (5'-nucleotidase [5]): 7.05
SMILES: Nc1ncnc2c1ncn2[C@@H]1O[C@H](COP(=O)(O)OP(=O)(O)O)[C@@H](O)[C@H]1O [ADENOSINE DIPHOSPHATE]

pKi (5'-nucleotidase [1]): 6.35
SMILES: CCN(CC)c1nc(Cl)nc2c1ncn2[C@@H]1O[C@H](COCP(=O)(O)OP(=O)(O)C(Br)(Br)P(=O)(O)O)[C@@H](O)[C@H]1O

pIC50 (5'-nucleotidase [3]): 6.25
SMILES: C=C(C)[C@@H]1CC[C@]2(C(=O)O)CC[C@]3(C)[C@H](CC[C@@H]4[C@@]5(C)CC[C@H](OC(=O)c6ccc(F)cc6)C(C)(C)[C@@H]5CC[C@]43C)[C@@H]12

pEC50 [7]: 6.96
pIC50 (5'-nucleotidase [8]): 7.30
SMILES: O=P(O)(O)COC[C@H]1O[C@@H](n2ncc3c(N4CC5(CCc6ccccc65)C4)nc(Cl)nc32)[C@H](O)[C@@H]1O

pIC50 (5'-nucleotidase [8]): 6.60
SMILES: COC[C@](CO)(OC[C@H]1O[C@@H](n2ncc3c(NC4CCCC4)nc(Cl)nc32)[C@H](O)[C@@H]1O)P(=O)(O)O

pIC50 (5'-nucleotidase [8]): 6.07
pIC50 (5'-nucleotidase [9]): 6.07
SMILES: O=P(O)(O)CP(=O)(O)CC(O)[C@H]1O[C@@H](n2ccnn2)[C@H](O)[C@@H]1O (stereo not given in full)

SMILES: C=C(C)[C@@H]1CC[C@]2(C(=O)O)CC[C@]3(C)[C@H](CC[C@@H]4[C@@]5(C)CC[C@H](O)C(C)(C)[C@@H]5CC[C@]43C)[C@@H]12 [BETULINIC ACID]
pKi (5'-nucleotidase [10]): 5.11

pIC50 (5'-nucleotidase [3]): 6.33
SMILES: C=C(C)[C@@H]1CC[C@]2(C(=O)O)CC[C@]3(C)[C@H](CC[C@@H]4[C@@]5(C)CC[C@H](OC(=O)c6c(F)c(F)c(F)c(F)c6F)C(C)(C)[C@@H]5CC[C@]43C)[C@@H]12

inhibition (5'-nucleotidase [11]): 70%
SMILES: C=C[C@]1(C)C[C@@H](OC(=O)CO)[C@]2(C)[C@H](C)CC[C@]3(CCC(=O)[C@H]32)[C@@H](C)[C@@H]1O
